According to patent US20080125432A1 (Devgen NV, priority 2004, published 2008):

Assays:
[1] = test system: isolated guinea pig right ventricular papillary muscle; assay: Ex-vivo organ study: functional refractory period in isolated guinea pig right ventricular papillary muscle; conditions: conc 10^−5 mol/l
Source text: The compounds were checked for their effect on the force of contraction, stimulation threshold and for the Functional Refractory Period (FRP) in isolated rat left atria (Rat LA). Rat left atria functionally express the Kv4.3 ion channel, producing the Ito current of the action potential. […] The guinea pig action potential is dominated by hERG like ion channels for the refractory currents. Consequently, activity of hERG channels in vivo should be seen in GP pap muscle preparations.
Method: Rat LA (Same Method Applies to GP pap. Muscle)
Left atria were mounted vertically in a two-chambered organ bath containing 100 ml of buffer solution (in mM: NaH2PO4 0.6, MgSO4 0.6, KCl 4.7, NaHCO3 25, glucose 4.5, NaCl-120, CaCl2 2.4). The solution was saturated with and circulated by a gas mixture containing 95% O2 and 5% CO2. The temperature was kept constant at 30° C. […] The isometric force of the preparations was measured by force transducers, connected to amplifiers, documented by a pen recorder and fed into a computer for evaluation. Force of contraction (FC), threshold stimulus (TS) and the functional refractory period (FRP) were measured at baseline (pre), 20 min after addition of compound, and after washout at the end of the experiment. Threshold stimulus, representing excitability of the tissue, was assessed by varying the voltage applied for electrical stimulation. […]

[2] = test system: arterially perfused rabbit left ventricular wedge preparation; assay: Arterially perfused rabbit left ventricular wedge preparation (QT, Tp-e, EAD, TdP); conditions: 2000 ms BCL; for Tp-e: control 52.2 ± 3.7; for QT: control 288.2 ± 11.1; for EAD: events per preparations
Source text: The compounds were checked for their effect on the QT interval, the Tp-e interval (Yan and Antzelevitch, Circulation 1998; 98:1928-1936; Yan et al, Circulation 2001; 103:2851-2856) that approximates closely to transmural dispersion of repolarization (TDR), the Tp-e/QT ratio that reflects the potential of phase 2 early afterdepolarization (EAD) development in sub- and/or endocardium (Joshi et al, Journal of Electrocardiology, 2004, 34 (suppl): 7-14) and the phenomena dependent on phase 2 EAD (i.e. R on T extrasystole and TdP) in the isolated arterially-perfused rabbit ventricular wedge preparation.
Female rabbits weighting 2.5-3 kg were anticoagulated with heparin and anesthetized with pentobarbital (30-35 mg/kg, i.v.). The chest was opened via left thoracotomy, and the heart was excised and placed in a cardioplegic solution consisting of cold (4° C.) normal Tyrode s solution (in mmol/l: NaCl 129, KCl 4.0, CaCl2 1.8, NaH2PO4 0.9, MgSO4 0.5, NaHCO3 20, glucose 5.5). A transmural wedge, approximately 1.5 cm wide and 2-3 cm long, was dissected from the left ventricle and rapidly cannulated via the left anterior descending artery or the circumflex artery and perfused with cardioplegic solution for <4 min. The preparation was then transferred to a tissue bath (100 ml) and perfused with warm (35.7±0.1° C.) Tyrode's solution containing 4 mM K^+ buffered ? with 95% O2 and 5% CO2. Perfusion pressure was set at 40-50 mmHg by using a peristaltic pump. The preparation was paced at a basic cycle length of 1000 ms and allowed to equilibrate for approximately 1 h, the time necessary to achieve electrical stability. Electrical pacing was delivered via bipolar silver electrodes insulated except at the tips and applied to the endocardial surface.
After the preparation equilibrated for one hour, the experiment was initiated. During the infusion of the compounds, the preparation was stimulated from the endocardium at basic cycle lengths of 1000 ms from the beginning of the infusion to the 20th minute and then at 2000 ms from the 20th minute to the 30th minute. At the end of each pacing cycle length, the ECG signal was sampled for 1 to 2 min at a sampling rate of 1562 Hz (Spike 2 software, CED, England)
A transmural ECG signal was recorded in all experiments. The QT interval was defined as the time from the onset of the QRS to the point at which the final downslope of the T wave across isoelectric line. The QT interval values were derived from the mean values of four consecutive beats. (Yan and Antzelevitch, Circulation 1998; Yan et al, Circulation 2001; 103:2851-2856; and Antzelevitch, Journal of Electrocardiology 2004; 37(Suppl): 15-24).

COc1ccccc1Nc1nc(C)c(C(=O)N[C@H]2CCC[C@@H]2OCc2ccccc2)s1 [Compound 68, 2-(2-methoxy-phenylamino)-4-methyl-thiazole-5-carboxylic acid (1S,2S)-2-(benzyloxycyclopent-1-yl) amide]
dFRP Guinea Pig [1]: 0 ms
TdP Score ([2]; 1 μmol/l): 0.0 ± 0.0
Tp-e ([2]; 1 μmol/l): 52.0 ± 3.9 ms
QT ([2]; 1 μmol/l): 287.6 ± 11.4 ms
EAD ([2]; 1 μmol/l): 0/5
TdP Score ([2]; 3 μmol/l): 0.0 ± 0.0
Tp-e ([2]; 3 μmol/l): 51.4 ± 4.0 ms
QT ([2]; 3 μmol/l): 286.6 ± 12.0 ms
EAD ([2]; 3 μmol/l): 0/5
